Calls of active or inactive are those of the source. No cut-off for these calls is given here.
What was measured:
[1] = Cytotoxicity against MDCK cells after 72 hrs; format: cell-based, Canis lupus familiaris; conditions: dog
[2] = system: Influenza A virus; experiment: Antiviral activity against Influenza A virus (A/Hong Kong/1/1968(H3N2)) infected in MDCK cells assessed as inhibition of virus-induced cytopathic effect at 50 uM after 48 hrs; format: functional; conditions: for inhibition at 50 µM: Influenza A virus, MDCK, 48 h
[3] = system: Influenza A virus; experiment: Antiviral activity against Influenza A virus J/8178/09 infected in MDCK cells assessed as inhibition of virus-induced cytopathic effect at 50 uM after 48 hrs; format: functional; conditions: for inhibition at 50 µM: Influenza A virus, J/8178/09, MDCK, 48 h
[4] = Inhibition of Clostridium perfringens neuraminidase by chemiluminescence based assay
[5] = Inhibition of Clostridium perfringens neuraminidase by fluorescence based assay
[6] = Induction of fluorescence quenching at 100 uM relative to 4-methylumbelliferone; format: physicochemical
[7] = Induction of fluorescence at 100 uM relative to 4-methylumbelliferone; format: physicochemical

## O=C1C[C@@H](c2ccc(O)cc2)Oc2cc(O[C@@H]3O[C@H](CO)[C@@H](O)[C@H](O)[C@H]3O)cc(O)c21 [PRUNIN]
[1]
  CC50 at 72 h: 126 µM
[2]
  inhibition: inactive
[3]
  inhibition (INH): 49.6%

## O=C(/C=C/c1ccc(O)cc1)OC[C@]1(O)CO[C@H](O[C@H]2[C@H](Oc3ccc(/C=C/C(=O)c4ccc(O)cc4O)cc3)O[C@H](CO)[C@@H](O)[C@@H]2O)[C@H]1O
[2]
  inhibition: inactive
[3]
  inhibition: inactive

## CC1(C)C=Cc2c(ccc([C@@H]3COc4c(ccc5c4C=CC(C)(C)O5)C3)c2O)O1 [HISPAGLABRIDIN B]
[4]
  IC50: 170 nM
[5]
  IC50: 4.23 µM
[6]
  Activity: 15.1%
[7]
  Activity: 0.05%
[1]
  CC50 at 72 h: 39.2 µM
[2]
  inhibition at 50 µM: 31.2%
[3]
  inhibition at 50 µM: 48.4%

## CC1(C)C=Cc2c(ccc3c2OCC(O)C3)O1 (configuration not stated)
[4]
  IC50: 640 nM
[5]
  IC50: 2.88 µM
[6]
  Activity: 15%
[7]
  Activity: 0%
[1]
  CC50 at 72 h: 336 µM
[2]
  inhibition: inactive
[3]
  inhibition at 50 µM: 36.1%

## COc1ccc(-c2coc3cc(O)ccc3c2=O)cc1 [FORMONONETIN]
[4]
  IC50: 340 nM
[5]
  IC50: 13.6 µM
[6]
  Activity: -12.4%
[7]
  Activity: 15.4%
[1]
  CC50 at 72 h: 123 µM

## CC(C)=CCc1cc([C@@H]2CC(=O)c3ccc(O)c(CC=C(C)C)c3O2)ccc1O [GLABROL]
[4]
  IC50: 130 nM
[5]
  IC50: 2.17 µM
[6]
  Activity: 37.4%
[7]
  Activity: 1.18%
[1]
  CC50 at 72 h: 25.4 µM
[2]
  inhibition: inactive
[3]
  inhibition: inactive

## CC1(C)C=Cc2c(ccc(-c3coc4cc(O)ccc4c3=O)c2O)O1 [GLABRONE]
[4]
  IC50: 70 nM
[5]
  IC50: 11.7 µM
[6]
  Activity: 28.3%
[7]
  Activity: 0.68%
[1]
  CC50 at 72 h: 90.8 µM
[2]
  inhibition at 50 µM: 24.2%

## O=C1C[C@@H](c2ccc(O[C@@H]3O[C@H](CO)[C@@H](O)[C@H](O)[C@H]3O[C@H]3OC[C@@](O)(COC(=O)c4c[nH]c5ccccc45)[C@@H]3O)cc2)Oc2cc(O)ccc21
[2]
  inhibition: inactive
[3]
  inhibition: inactive

## CC(C)=CCc1c(O)ccc(C(=O)/C=C/c2cc(O)c3c(c2)C=CC(C)(C)O3)c1O
[1]
  CC50 at 72 h: 135 µM
[2]
  inhibition (INH): 48.1%
[3]
  inhibition (INH): 29.7%

## O=C1C[C@@H](c2ccc(O)cc2)Oc2cc(O)ccc21 [LIQUIRTIGENIN]
[1]
  CC50 at 72 h: 301 µM
[2]
  inhibition: inactive
[3]
  inhibition: inactive

## O=C1C[C@@H](c2ccc(O[C@@H]3O[C@H](CO)[C@@H](O)[C@H](O)[C@H]3O)cc2)Oc2cc(O)ccc21 [LIQUIRITIN]
[1]
  CC50 at 72 h: > 239 µM
[2]
  inhibition: inactive
[3]
  inhibition: inactive

## CCOC(=O)C1=C[C@@H](OC(CC)CC)[C@H](NC(C)=O)[C@@H](N)C1 [OSELTAMIVIR]
[4]
  IC50: 110000 nM
[5]
  IC50: 125 µM
[6]
  Activity: 12.8%
[7]
  Activity: 0.05%
